# US8821839B2, “Compositions and methods for imparting a sunless tan with a vicinal diamine” (Conopco, Inc., priority 2010, dated 2014)
# Assay: Individual Typologic Angle change on synthetic skin for 2.5% DHA plus adjuvant in citric acid/citrate buffer solution
# Settings: adjuvant at molar equivalent of 1% glycine; for ΔITA ° after 2 hours: pH about 5.5, 2 hours; for ΔITA ° after 4 hours: pH about 5.5, 4 hours
# Method: The synthetic skin was pre-hydrated at 95% RH for 24 hours and then treated with portions of the samples at a dosage of 5 μL/cm^2. The treated synthetic skin was then stored at 35° C. and 40% RH for periods up to 24 hours. […]
# Formulations in Table IV containing 2.5% DHA and the molar equivalent of 1% glycine as adjuvant in a citric acid/citrate buffer solution were prepared. The formulations were adjusted to a pH of about 5.5 to mimic the formulation pH after application to human skin.
# Individual Typologic Angle results were obtained in a manner similar to the one described in Example 1.
smiles,measurement,value
"NC1CCCCC1N (stereo not shown) [1,2-diamino cyclohexane]",ΔITA ° after 2 hours,20 ± 3 °
same,ΔITA ° after 4 hours,35 ± 3 °
"CC(N)CN (stereo not shown) [1,2-diamino propane]",ΔITA ° after 2 hours,17 ± 2 °
same,ΔITA ° after 4 hours,32 ± 3 °
"NCCCN [1,3-diamino propane]",ΔITA ° after 2 hours,6 ± 3 °
same,ΔITA ° after 4 hours,16 ± 4 °
"NCCCCN [1,4-diamino butane]",ΔITA ° after 2 hours,4 ± 2 °
same,ΔITA ° after 4 hours,12 ± 4 °
"NC1C(O)OC(CO)C(O)C1N (stereo not shown) [3,4-diamino-6-hydroxymethyl-tetrahydro-pyrane 2,5-diol]",ΔITA ° after 2 hours,15 ± 3 °
same,ΔITA ° after 4 hours,23 ± 2 °
NCCN [Ethylene diamine],ΔITA ° after 2 hours,16 ± 2 °
same,ΔITA ° after 4 hours,32 ± 3 °
NCC(=O)O [Glycine],ΔITA ° after 2 hours,2 ± 1 °
same,ΔITA ° after 4 hours,7 ± 2 °
"CN(C)CCN [N,N-dimethyl ethylene diamine]",ΔITA ° after 2 hours,4 ± 2 °
same,ΔITA ° after 4 hours,8 ± 2 °
